Measurements reported in publication PMC3154276, “The Effect of the Potential PhoQ Histidine Kinase Inhibitors on Shigella flexneri Virulence” (PLoS ONE, 2011).

Key:
Format in all cases: cell-based
[1] = Erythrocyte hemolysis assay; settings: human erythrocytes (5% suspension), healthy human erythrocytes
Description: The hemolytic activity of the potential PhoQ inhibitors was determined using human erythrocytes. The erythrocytes were washed three times with sterile saline and resuspended to 5% cell concentration prior to assay. Then, 200 µl erythrocyte suspensions containing 25 µmol/L or 100 µmol/L concentrations of each potential PhoQ inhibitors were added in triplicate to the wells of the 96-well microtiter plates. Cells without potential PhoQ inhibitors treatment or with 1% Triton-100 treatment were used as the zero or 100% hemolysis control, respectively. The cell suspensions were incubated for 1 hour at 37°C and centrifuged for 10 minutes at 1200×g. Supernatants (100 µl) were transferred to another sterile plate, and the released hemoglobin was measured absorbance readings at 570 nm. […] The hemolysis assay was repeated twice.

[2] = system: S. flexneri 2a 301 phoQ/phoP knock-out mutant (Sf301 ΔphoQ/phoP); assay: Gentamicin protection assay, HeLa cell invasion by phoQ/phoP knock-out mutant; settings: HeLa cells; for cell invasion rate of Sf301 ΔphoQ/phoP: untreated mutant 0.069; for effect on cell invasion of Sf301 phoQ/phoP knock-out mutant: Figure 6C
Description: Bacterial ability to invade HeLa cells was tested with a gentamicin protection assay. HeLa cells were grown in six-well tissue culture plates to semi-confluent monolayers (DMEM, 10% FCS, 5% CO2). Sf9380 or Sf301 ΔphoQ/phoP was treated with potential PhoQ inhibitors for 8 hours in LB at 37°C (final concentrations of 100,50,25,12.5 or 6.25 µmol/L) prior to infection. The bacteria pre-treated with potential PhoQ inhibitor without washing, were added to semi-confluent HeLa cells at a multiplicity of infection of 100, at the same time the bacteria were diluted and plated onto LB agar plates. The CFUs were counted as initial bacterial number before added into HeLa cells. Then the plates were centrifuged at 900×g for 5 minutes. After incubating at 37°C for 60 minutes (For testing intracellular growth and spreading to adjacent cell, cells were further incubated for 290 min [9].), the cells were washed three times with PBS, and gentamicin was added to the medium to a final concentration of 10 µg/ml for 20 minutes at 37°C. After the incubation, the HeLa cells in each well were lysed in 1 ml of PBS containing 0.1% Triton X-100 for 10 minutes at room temperature. The lysates were diluted and plated onto LB agar plates in triplicate. Colonies grown on LB plates were counted. The results of the assays were expressed as the number of bacteria recovered from gentamicin-treated cells divided by the number of inoculated bacteria added to the cell. The cells were inoculated with untreated Sf9380 or Sf301 ΔphoQ/phoP (treated without DMSO) as a positive control and E. coli ATCC 25922, an avirulent strain treated without DMSO, as a negative control. DMSO is the solvent of the potential PhoQ inhibitor compounds; therefore, Sf9380 was also treated with the same amount of 0.1% DMSO as the other groups to control for any DMSO-specific effects. The cell invasion assay was performed in triplicate for each potential PhoQ inhibitor, and the assay was repeated twice.

[3] = system: Salmonella enterica Typhimurium SL1344; assay: Salmonella cell invasion assay (gentamicin protection, HeLa cells); settings: for cell invasion rate of Salmonella enterica Typhimurium SL1344: HeLa cells, untreated Salmonella 6×10^−2; for effect on cell invasion of Salmonella SL1344 (words, discussion): Figure 7, concentration not restated
Description: The effects of potential PhoQ inhibitors on cell invasion of Salmonella were determined by gentamicin protection assay.
Figure 7 The effects of potential PhoQ inhibitors on cell invasion of Salmonella. […] The bacteria pre-treated with potential PhoQ inhibitor were added to HeLa cells at a multiplicity of infection of 100. Then gentamicin was added to kill extracellular bacteria and cell lysates were plated onto LB plates, and the colonies were counted. The results of the assays were expressed as the number of bacteria recovered from gentamicin-treated cells divided by the number of inoculated bacteria added to the cell. Salmonella enterica typhimurium SL1344 served as the positive control for the cell invasion assay; E. coli ATCC 25922 (treated without DMSO), an avirulent strain, served as the negative control for the cell invasion assay; bacteria treated with 0.1% DMSO also served as a control for the cell invasion assay. Values are means ± standard deviations from 6 independent wells. *p<0.01 vs. SL1344.
The gentamicin protection assay was used as a cellular model to evaluate the inhibitory effect of the four potential PhoQ inhibitors. Salmonella enterica typhimurium SL1344 was treated with each of the four potential PhoQ inhibitors (final concentrations: potential PhoQ inhibitor 1 was 12.5 µmol/L, 2 was 25 µmol/L, 3 was 100 µmol/L and 4 was 100 µmol/L) and grown for 8 hours. The bacteria pre-treated with potential PhoQ inhibitor without washing, were added to HeLa cells at a multiplicity of infection of 100, at the same time the bacteria were diluted and plated onto LB agar plates. The CFUs were counted as initial bacterial number before added into HeLa cells. Next, the bacteria were inoculated to HeLa cells and incubated with for 60 minutes prior to the addition of gentamicin to kill extracellular bacteria. After the incubation, the HeLa cells in each well were lysed in 1 ml of PBS containing 0.1% Triton X-100 for 10 minutes at room temperature. The lysates were diluted and plated onto LB agar plates in triplicate. Colonies grown on LB plates were counted. The results of the assays were expressed as the number of bacteria recovered from gentamicin-treated cells divided by the number of inoculated bacteria added to the cell. After lysates of HeLa cells were plated, the number of CFU that formed on LB agar were counted. The cells were inoculated with untreated SL1344 (treated without DMSO) as a positive control and E. coli ATCC 25922, an avirulent strain treated without DMSO, as a negative control. SL1344 was treated with the same amount of 0.1% DMSO as the other groups to control for any DMSO-specific effects. The cell invasion assay was performed in triplicate for each potential PhoQ inhibitor, and the assay was repeated twice.

[4] = Cytotoxicity MTT assay on Vero cells; settings: African green monkey, highest concentration tested 200 µmol/L, read-out: CC50 on Vero cell
Description: The cytotoxicity of each potential PhoQ inhibitor towards a Vero cell line was analyzed by the traditional MTT assay. The CC50 values of all four compounds were higher than 200 µmol/L, the highest tested concentration of potential PhoQ inhibitors. As a control, an equal concentration of DMSO (0.1%) was added to a well of Vero cells, and no obvious cytotoxicity was observed (Table 1).
Cytotoxicity of the potential PhoQ inhibitors on cultured Vero cells was measured by using the Cell Proliferation Kit I (MTT) (Roche, Indianapolis, USA). An equal concentration of DMSO (0.1%) in the medium was used as a negative control. The cytotoxicity assay was performed in triplicate for each potential PhoQ inhibitor, and the assay for each potential PhoQ inhibitor was repeated twice. The results were converted to percentage of the control (cells only containing 0.1% DMSO) and CC50 (concentrations that produce a 50% cytotoxicity effect on Vero cell) of each potential PhoQ inhibitors was calculated using the Origin v7.0 software (OriginLab, Northampton, USA).

SMILES	hemolysis at 1 h, 25 µmol/L [1]	hemolysis at 1 h, 100 µmol/L [1]	cell invasion rate of Sf301 ΔphoQ/phoP ([2]; 100 µmo/L)	effect on cell invasion of Sf301 phoQ/phoP knock-out mutant [2]	times lower invasion than the control, SL1344 ([3]; 100 µmo/L)	cell invasion rate of Salmonella enterica Typhimurium SL1344 ([3]; 100 µmo/L)	effect on cell invasion of Salmonella SL1344 (words, discussion) [3]	CC50 [4]	cell invasion rate of Sf301 ΔphoQ/phoP ([2]; 25 µmo/L)	times lower invasion than the control, SL1344 ([3]; 25 µmo/L)	cell invasion rate of Salmonella enterica Typhimurium SL1344 ([3]; 25 µmo/L)	effect on cell invasion of SL1344 ([3]; 100 µmo/L)	cell invasion rate of Sf301 ΔphoQ/phoP ([2]; 12.5 µmo/L)	times lower invasion than the control, SL1344 ([3]; 12.5 µmo/L)	cell invasion rate of Salmonella enterica Typhimurium SL1344 ([3]; 12.5 µmo/L)
O=C(O)c1ccc(Cl)c(-c2ccc(/C=N/NC(=O)c3ccc(Br)cc3)o2)c1 [Compound 3]	< 0.1%	< 0.1%	0.083	no obvious effects	166 times	0.036×10^−2	inhibited	> 200 µM	–	–	–	–	–	–	–
CCOc1ccccc1-c1cc(C(=O)N/N=C/c2ccc(OCc3ccccc3)c(OC)c2)c2ccccc2n1 [Compound 2]	< 0.1%	< 0.1%	–	no obvious effects	–	–	inhibited	> 200 µM	0.102	3.84 times	1.564×10^−2	–	–	–	–
O=C(O)c1cc(-c2ccc(-c3ccccc3Cl)o2)nc2ccc3ccccc3c12 [Compound 4]	< 0.1%	< 0.1%	0.053	–	–	5.7×10^−2	no obvious effect	> 200 µM	–	–	–	no obvious effect	–	–	–
O=C(Nc1ccc(C2(c3cccc(NC(=O)c4cccc5ccccc45)c3)c3ccccc3C(=O)c3ccccc32)cc1)c1ccc2ccccc2c1 [Compound 1]	< 0.1%	< 0.1%	–	no obvious effects	–	–	inhibited	> 200 µM	–	–	–	–	0.064	6.74 times	0.89×10^−2
